We go through 16 compounds from patent publication US10448639B2, “Fungicidal pyrazoles” (FMC CORPORATION, priority 2009, dated 2019).

One assay relates to Septoria nodorum. Briefly: Test F: Septoria glume blotch, preventive spray on wheat seedlings, visual disease rating. The note with it: for pest or weed control at 200 µg/mL: Parastagonospora nodorum, in Triticum aestivum, 192 h, read-out: Test F rating (% disease control); for Test F rating (% disease control): Septoria glume blotch, 0 = no control relative to controls; for Test F rating (% disease control) / Test F disease control rating: 100 = 100% disease control; for Test F disease control rating: Septoria glume blotch on wheat, 0 = no disease control relative to controls.

Another assay deals with Alternaria solani. In words: Test C: tomato early blight, preventive spray on tomato seedlings, visual disease rating. The note with it: for pest or weed control at 200 µg/mL: Alternaria solani, in Solanum lycopersicum, 168 h, read-out: Test C rating (% disease control); for Test C rating (% disease control) / Test C disease control rating: tomato early blight, 100 = 100% disease control; for Test C rating (% disease control): 0 = no control relative to controls; for Test C disease control rating: 0 = no disease control relative to controls.

The subject of a further assay is Septoria tritici. Briefly: Test G: wheat leaf blotch, preventive spray on wheat seedlings, visual disease rating. The settings on record: for pest or weed control at 200 µg/mL: Zymoseptoria tritici, in Triticum aestivum, 504 h, read-out: Test G rating (% disease control); for Test G rating (% disease control): 0 = no control relative to controls.
Assay [1] concerns Puccinia recondita f. sp. tritici. Briefly: Test I: wheat leaf rust, preventive spray on wheat seedlings, visual disease rating. The settings on record: for pest or weed control at 200 µg/mL: 192 h, read-out: Test I rating (% disease control); for Test I rating (% disease control) / Test I disease control rating: wheat leaf rust, 100 = 100% disease control; for Test I rating (% disease control): preventive, 0 = no control relative to controls; for Test I disease control rating: sprayed the day before inoculation, 0 = no disease control relative to controls.
Excerpt: General protocol for preparing test suspensions for Tests A-J: the test compounds were first dissolved in acetone in an amount equal to 3% of the final volume and then suspended at the desired concentration (in ppm) in acetone and purified water (50/50 mix by volume) containing 250 ppm of the surfactant Trem® 014 (polyhydric alcohol esters). The resulting test suspensions were then used in Tests A-J. Spraying a 200 ppm test suspension to the point of run-off on the test plants was the equivalent of a rate of 500 g/ha. Unless otherwise indicated, the rating values indicate a 200 ppm test suspension was used. (An asterisk “*” next to the rating value indicates a 40 ppm test suspension was used.)
The test suspension was sprayed to the point of run-off on wheat seedlings. The following day the seedlings were inoculated with a spore suspension of Puccinia recondita f. sp. tritici (the causal agent of wheat leaf rust) and incubated in a saturated atmosphere at 20° C. for 24 h, and then moved to a growth chamber at 20° C. for 7 days, after which time visual disease ratings were made
A dash (-) indicates no test results.

The test system is the same in assay [2]. In words: Test H: wheat leaf rust, curative spray on inoculated wheat seedlings, visual disease rating. The note with it: for pest or weed control at 200 µg/mL: 144 h, read-out: Test H rating (% disease control); for Test H rating (% disease control) / Test H disease control rating: wheat leaf rust, 100 = 100% disease control; for Test H rating (% disease control): curative, 0 = no control relative to controls; for Test H disease control rating: sprayed after inoculation, 0 = no disease control relative to controls.

The next assay has as its system Botrytis cinerea. Briefly: Test B: tomato Botrytis, preventive spray on tomato seedlings, visual disease rating. The settings on record: for pest or weed control at 200 µg/mL: Botrytis cinerea, in Solanum lycopersicum, 120 h, read-out: Test B rating (% disease control); for Test B rating (% disease control) / Test B disease control rating: tomato Botrytis, 100 = 100% disease control; for Test B rating (% disease control): 0 = no control relative to controls; for Test B disease control rating: 0 = no disease control relative to controls.

Assay [3] relates to Erysiphe graminis f sp. tritici. In words: Test J: wheat powdery mildew, preventive spray on wheat seedlings, visual disease rating. The settings on record: for pest or weed control at 200 µg/mL: Blumeria graminis, in Triticum aestivum, 192 h, read-out: Test J rating (% disease control); for Test J disease control rating: sprayed the day before inoculation, 0 = no disease control relative to controls.

Setting [4] is: wheat leaf blotch, 100 = 100% disease control.
Where [5] appears, read: wheat powdery mildew, 100 = 100% disease control.

For the compound `COc1cc(F)c(Nc2c(-c3ccc(F)cc3Cl)c(C)nn2C)c(F)c1` [Compound 17, 4-(2-Chloro-4-fluorophenyl)-N-(2,6-difluoro-4-methoxyphenyl)-1,3-dimethyl-1H-pyrazol-5-amine], the pest or weed control at 200 µg/mL came to 93% with Septoria nodorum; 100% in the assay on Alternaria solani; 97% with Septoria tritici; 100% in assay [1]; 96% in assay [2]; 100% with Botrytis cinerea. Besides, the pest or weed control at 200 µg/mL in assay [3] turned out to be 100%.

In the case of `Cc1nn(C)c(Nc2c(F)cc(F)cc2F)c1-c1ccc(F)cc1Cl` [Compound 18, 4-(2-chloro-4-fluorophenyl)-1,3-dimethyl-N-(2,4,6-trifluorophenyl)-1H-pyrazol-5-amine], the pest or weed control at 200 µg/mL with Septoria nodorum was 99%; in the assay with Alternaria solani, 100%; in the assay on Septoria tritici it was 95%; in assay [1] it was 100%; in assay [2], 99%; in the assay with Botrytis cinerea it was 99%. Moreover, the pest or weed control at 200 µg/mL in assay [3] worked out at 100%.

`COc1cc(F)c(-c2c(C)nn(C)c2Nc2ccc(Cl)cc2)c(F)c1` [Compound 22, N-(4-chlorophenyl)-4-(2,6-difluoro-4-methoxyphenyl)-1,3-dimethyl-1H-pyrazol-5-amine]: the pest or weed control at 200 µg/mL in the assay on Septoria nodorum stood at 90%; in the assay with Alternaria solani, 85%; in the assay on Septoria tritici, 94%; in assay [1], 94%; in assay [2], 9%; in the assay with Botrytis cinerea, 90%. Moreover, the pest or weed control at 200 µg/mL in assay [3] worked out at 100%.

With `COc1cc(F)c(-c2c(C)nn(C)c2Nc2ccc(F)cc2F)c(F)c1` [Compound 23, 4-(2,6-difluoro-4-methoxyphenyl)-N-(2,4-difluorophenyl)-1,3-dimethyl-1H-pyrazol-5-amine], the pest or weed control at 200 µg/mL is 99% in the assay with Septoria nodorum; 100% in the assay on Alternaria solani; 93% with Septoria tritici; 100% in assay [1]; 92% in assay [2]; 98% in the assay on Botrytis cinerea. In addition, the pest or weed control at 200 µg/mL in assay [3] was 100%.

Take `COc1cc(F)c(-c2c(C)nn(C)c2Nc2c(F)cc(F)cc2F)c(F)c1` [Compound 24, 4-(2,6-difluoro-4-methoxyphenyl)-1,3-dimethyl-N-(2,4,6-trifluorophenyl)-1H-pyrazol-5-amine]: the pest or weed control at 200 µg/mL in the assay on Septoria nodorum stood at 0%; in the assay on Alternaria solani it was 100%; in the assay with Septoria tritici, 94%; in assay [1], 97%; in assay [2], 9%; in the assay on Botrytis cinerea, 98%. For the same compound, the pest or weed control at 200 µg/mL in assay [3] came out at 100%.

On to `COc1cc(F)c(Nc2c(-c3ccc(F)c(F)c3)c(C)nn2C)c(F)c1` [Compound 36, N-(2,6-difluoro-4-methoxyphenyl)-4-(3,4-difluorophenyl)-1,3-dimethyl-1H-pyrazol-5-amine], for which the pest or weed control at 200 µg/mL in the assay on Septoria nodorum is 0%; in the assay with Alternaria solani, 0%; in the assay with Septoria tritici, 96%; in assay [1], 96%; in assay [2] it was 0%; in the assay with Botrytis cinerea it was 100%. In addition, in assay [3], the pest or weed control at 200 µg/mL was 98%.

`Cc1nn(C)c(Nc2c(F)cc(F)cc2F)c1-c1ccc(F)cc1F` [Compound 41, 4-(2,4-difluorophenyl)-1,3-dimethyl-N-(2,4,6-trifluorophenyl)-1H-pyrazol-5-amine]: the pest or weed control at 200 µg/mL in the assay with Septoria nodorum worked out at 90%; in the assay with Alternaria solani, 99%; with Septoria tritici, 94%; in assay [1], 100%; in assay [2], 0%; with Botrytis cinerea, 100%. In addition, the pest or weed control at 200 µg/mL in assay [3] worked out at 99%.

For the compound `Cc1nn(C)c(Oc2c(F)cc(C#N)cc2F)c1-c1ccc(F)cc1Cl` [Compound 45, 4-[[4-(2-chloro-4-fluorophenyl)-1,3-dimethyl-1H-pyrazol-5-yl]oxy]-3,5-difluorobenzonitrile], the pest or weed control at 200 µg/mL was 100% with Septoria nodorum; 100% in the assay with Alternaria solani; 100% in the assay on Septoria tritici; 100% in assay [1]; 7% in assay [2]; 100% with Botrytis cinerea. Moreover, the pest or weed control at 200 µg/mL in assay [3] is 100%.

In the case of `Cc1nn(C)c(Oc2c(F)cc([N+](=O)[O-])cc2F)c1-c1c(F)cc(F)cc1F` [Compound 54, 5-(2,6-Difluoro-4-nitrophenoxy)-1,3-dimethyl-4-(2,4,6-trifluorophenyl)-1H-pyrazole], the pest or weed control at 200 µg/mL turned out to be 0% with Septoria nodorum; 0% with Alternaria solani; 41% with Septoria tritici; 95% in assay [1]; 0% in assay [2]; 96% in the assay with Botrytis cinerea. Further, in assay [3], the pest or weed control at 200 µg/mL turned out to be 95%.

For the compound `COc1cc(F)c(-c2c(C)nn(C)c2Oc2ccc(Br)c(OC)c2)c(F)c1` [compound 212], the “Test C rating (% disease control)” value in the assay with Alternaria solani came to 17%. In addition, the “Test G rating (% disease control)” value in the assay on Septoria tritici (setting [4]) was 98%. In addition, the “Test H rating (% disease control)” value in assay [2] was determined as 0%. The “Test B rating (% disease control)” value with Botrytis cinerea is 0%.

For `COc1cc(Cl)c(Nc2c(-c3ccc(F)cc3Cl)c(C)nn2C)c(Cl)c1` [compound 296], the “Test F rating (% disease control)” value with Septoria nodorum turned out to be 0%. Moreover, the “Test C rating (% disease control)” value in the assay with Alternaria solani was 0%. Also, in the assay on Septoria tritici (setting [4]), the “Test G rating (% disease control)” value is reported as 100%. In addition, the “Test I rating (% disease control)” value in assay [1] is recorded as 99%. Moreover, the “Test H rating (% disease control)” value in assay [2] is 0%. For the same compound, the “Test B rating (% disease control)” value in the assay with Botrytis cinerea is on record as 99%.

With `Cc1nn(C)c(Nc2ccc(Cl)cc2Cl)c1-c1ccc(F)cc1Cl` [compound 299], the “Test F rating (% disease control)” value in the assay on Septoria nodorum is on record as 51%. Also, the “Test C rating (% disease control)” value in the assay with Alternaria solani is listed as 95%. Besides, in assay [1], the “Test I rating (% disease control)” value came to 100%. In addition, the “Test H rating (% disease control)” value in assay [2] was determined as 41%. Besides, the “Test B rating (% disease control)” value with Botrytis cinerea was found to be 100%. In addition, the “Test J rating (% disease control)” value in assay [3] (wheat powdery mildew, 100 = 100% disease control, 0 = no control relative to controls) was 100%.

As to `Cc1nn(C)c(Nc2c(Cl)cc(F)cc2Cl)c1-c1ccc(F)cc1Br` [compound 316], in the assay with Septoria nodorum, the “Test F disease control rating” value turned out to be 0%. Further, the “Test C disease control rating” value in the assay on Alternaria solani is on record as 0%. Moreover, the “Test I disease control rating” value in assay [1] is given as 99%. In addition, in assay [2], the “Test H disease control rating” value was 9%. Besides, in the assay with Botrytis cinerea, the “Test B disease control rating” value is on record as 99%. Moreover, the “Test J disease control rating” value in assay [3] (setting [5]) is listed as 96%.

As to `COc1cc(Cl)c(Nc2c(-c3ccc(F)cc3Br)c(C)nn2C)c(Cl)c1` [compound 323], the “Test F disease control rating” value with Septoria nodorum is listed as 0%. Also, in the assay on Alternaria solani, the “Test C disease control rating” value came to 0%. Further, the “Test G disease control rating” value in the assay on Septoria tritici (wheat leaf blotch, sprayed the day before inoculation, 100 = 100% disease control, 0 = no disease control relative to controls) is given as 98%. Moreover, the “Test I disease control rating” value in assay [1] was determined as 94%. Further, the “Test H disease control rating” value in assay [2] was 0%. Further, the “Test B disease control rating” value with Botrytis cinerea is 98%.

`Cc1nn(C)c(Nc2c(F)cc(F)cc2Cl)c1-c1ccc(Cl)cc1Cl` [compound 391]: the “Test F disease control rating” value with Septoria nodorum came to 73%. For the same compound, the “Test C disease control rating” value with Alternaria solani is recorded as 99%. Further, the “Test I disease control rating” value in assay [1] is recorded as 99%. In assay [2], the “Test H disease control rating” value turned out to be 31%. In addition, in the assay on Botrytis cinerea, the “Test B disease control rating” value is recorded as 100%. Further, in assay [3] (setting [5]), the “Test J disease control rating” value came to 99%.

Take `Cc1nn(C)c(Nc2c(Cl)cc(Br)cc2Cl)c1-c1ccc(F)cc1Cl` [compound 403]: the “Test F disease control rating” value in the assay with Septoria nodorum is listed as 0%. Further, in the assay on Alternaria solani, the “Test C disease control rating” value is reported as 0%. Moreover, the “Test I disease control rating” value in assay [1] was determined as 100%. In addition, in assay [2], the “Test H disease control rating” value came to 99%. In addition, in the assay on Botrytis cinerea, the “Test B disease control rating” value worked out at 99%. Also, the “Test J disease control rating” value in assay [3] (setting [5]) is 99%.
